Assay results as given in patent publication US20220287995A1, “COMPOSITIONS AND METHODS FOR INHIBITING BACTERIAL VIRULENCE AND FLIM-BASED DEVICE AND METHOD FOR ANTIBIOTIC SUSCEPTIBILITY TESTING” (THE REGENTS OF THE UNIVERSITY OF CALIFORNIA, priority 2019, published 2022).
“Also recorded” adds a separate entry of the source.

How the values were obtained:
[1] = tested on: surface-attached P. aeruginosa; test: Image-based virulence (host killing) assay with amoeba host cells and calcein-AM; format: cell-based, Pseudomonas aeruginosa; conditions: for host-killing activity (host killing index): surface-attached wild-type P. aeruginosa in rich (PS:DB) medium, supplemented at 3 hours at 0.2%, assessed after 6 hours of growth, amoeba host cells
Experimental: P. aeruginosa cells were assayed using an image-based virulence assay as described previously (12, 50). P. aeruginosa strains were cultured in PS:DB, diluted 1:100 into 60×15 mm plastic petri dishes (Corning, Corning, N.Y.), cultured for 4 to 6 hours by shaking at 100 rpm, and harvested. Planktonic cells were assayed by transferring 10 μL of culture from the petri dish to a new petri dish, mixing with an equal volume of D. discoideum that were grown to an OD600 of 0.2-0.5, and immobilizing by placing an agar pad on top of the mixture (FIG. 11C). Agar pads were made using Bacto agar at a concentration of 1%, DB buffer, and 1 μM calcein acetoxymethyl (AM) ester (Molecular Probes, Eugene, Oreg.), and were cut into 1.5×1.5 cm squares (12, 50). Surface-attached cells were assayed by aspirating planktonic cells from the culture, washing with DB buffer to remove planktonic cells, mixing with an equal volume of D. discoideum, and immobilizing by placing an agar pad on top of the mixture (FIG. 11C) (50). The immobilized planktonic or surface-attached P. aeruginosa and D. discoideum were incubated at room temperature for 1 hour and imaged using fluorescence microscopy. The host killing index (12, 50) was computed as the average ratio of calcein-AM fluorescence to cell area in individual amoeba cells for 30 to 200 cells in each experiment.
Fluorescence microscopy to assess calcein-AM fluorescence was performed using a Nikon Eclipse Ti-E microscope (Nikon, Melville, N.Y.) containing Nikon 10× Plan Fluor Ph1 (0.3 NA) and 20×S Plan Fluor Nikon (0.45 NA) objectives, a Sola light engine (Lumencor, Beaverton, Oreg.), an LED-DA/FI/TX filter set (Semrock, Rochester, N.Y.) containing a 409/493/596 dichroic and 474/27 nm and 525/45 nm filters for excitation and emission, respectively, and a Hamamatsu Orca Flash 4.0 V2 camera (Hamamatsu, Bridgewater, N.J.). Images were acquired using Nikon NIS-Elements and analyzed using custom built software written previously (12) in Matlab (Mathworks, Natick, Mass.).
For experiments in which strains cultured in PS:DB were supplemented with individual carbon sources (FIG. 5A-D), pyruvic acid, citric acid, […], glycerol, or glucose was added to cultures at a final concentration of 0.2% at 3 hours following a 1:100 dilution from an overnight culture. Cultures were harvested after 1 additional hour of growth for measurements of fluorescence lifetime and NADH and NAD^+ concentrations. For experiments in which surface-attached strains that were cultured in PS:DB media were treated with antimycin A (FIG. 5E-F), 10 μM antimycin A dissolved in 0.1% ethanol, 0.1% ethanol, alone, or 10 μM antimycin A dissolved in 0.1% ethanol and 0.2% citric acid were added after 3 hours of growth following a 1:100 dilution from an overnight culture. Host killing was measured after an additional 1 to 3 hours of growth (total of 4 to 6 hours of growth).

P. aeruginosa = test: Fluorescence lifetime imaging microscopy (FLIM) phasor g-values of P. aeruginosa; format: cell-based, Pseudomonas aeruginosa; conditions: for enzyme-bound NADH pool: surface-attached P. aeruginosa treated with carbon source; for fluorescence lifetime g-value / change in FLIM g-value: surface-attached; for fluorescence lifetime g-value: modified minimal medium, single carbon source at 0.2%; for change in FLIM g-value: rich (PS:DB) medium, carbon source 0.2% added at 3 hours, harvested after 1 additional hour
Experimental: Fluorescence lifetime measurements were performed using a custom-built multiphoton microscope setup based on an Olympus FV1000 system and an Olympus IX81 microscope (Olympus, Waltham, Mass.) as described previously (68). The FLIM microscope uses an 80 MHz ultrafast Ti:Sapphire Mai Tai laser (Spectra-physics, Santa Clara, Calif.) set at 740 nm for mulitphoton excitation. The setup used a 690-nm SP dichroic-460/80 nm filter pair for separating emission and a PlanApo N Olympus oil immersion 60× (1.42 NA) objective (Olympus, Waltham, Mass.), which is capable of bacterial single-cell resolution imaging. An H7422P-40 photomultiplier tube module (Hamamatsu, Bridgewater, N.J.) and A320 FastFLIM Box (ISS, Champaign, Ill.) were used to measure fluorescence lifetime. Image acquisition was controlled by SimFCS software version 4 (64-bit) (Laboratory for Fluorescence Dynamics, Irvine, Calif.). Planktonic and surface-attached cells were isolated by modifying a protocol described previously (12, 50) (FIG. 11A).
Masks for bacterial cells were created through SimFCS using fluorescence intensity images and image intensity thresholding (FIG. 11B). Fluorescence lifetimes within the masked areas were transformed using
The microscope was calibrated before each session by setting the fluorescence lifetime obtained for 10 μM rhodamine 110 (Sigma, St. Louis, Mo.) to 4.0 ns. The laser power was set to 20% (<3 mW at back aperture of the microscope) using an acousto-optic modulator (AA Opto Electronic, Orsay, France). Sub-cellular fluorescence lifetimes (FIG. 1A) were collected using the 20× digital zoom mode at a rate of 1.7 sec/frame. All other P. aeruginosa measurements were performed using the 6× digital zoom mode using the same frame rate. For all measurements, 40 sequential frames were acquired to generate a single FLIM image.
P. aeruginosa strains were cultured overnight in PS:DB, diluted 1:100 into 35 mm glass-bottom dishes (MatTek Corporation, Ashland, Mass.) containing the same medium, and cultured for 4 to 6 hours (FIGS. 2E-F, 4A, 5A, and 8C). Alternatively, strains were cultured overnight in minimal medium A, diluted 1:100 into modified minimal media A with single carbon sources in culture tubes (FIGS. 6D-E and 7A-B, D) or glass-bottom dishes and cultured to an OD600 of 0.2 (FIG. 2E-F).
Planktonic cells were transferred to a new glass-bottom dish, immobilized using an agar pad, and imaged immediately (FIG. 11A). Agar pads were made using 1% Bacto agar (BD, Franklin Lakes, N.J.) and DB buffer (1, 2) or modified minimal medium A containing no carbon source for strains that were cultured in PS:DB or modified minimal medium, respectively, and were cut into 1.5×1.5 cm squares. Surface-attached cells were isolated by aspirating the supernatant from the dish, washing the dish to remove planktonic cells with DB buffer or modified minimal medium with no carbon source for strains cultured in PS:DB or modified minimal medium, respectively, and placing an agar pad on the dish surface, and were imaged immediately. Imaging was performed at room temperature.
For experiments involving FLIM measurements of the effects of antimycin A (FIG. 7D), P. aeruginosa were grown in culture tubes to saturation in modified minimal medium A containing 0.2% citrate, diluted 1:100 into the same medium in culture tubes, supplemented with 10 μM antimycin A (Sigma, St. Louis, Mo.) with 0.1% ethanol or with 0.1% ethanol, cultured to an OD600 of 0.2, and immediately measured for fluorescence lifetime. Fluorescence lifetimes for pyocyanin and pyoverdine (FIG. 7C) were measured using solutions of 6.2 mM pyocyanin (P0046, Sigma, St. Louis, Mo.) in DMSO and 5 mg/mL pyoverdine (P8124, Sigma, St. Louis, Mo.) in deionized water, respectively. For FIG. 6D, cells with fluorescence intensities below a value of 1.0, as reported by the SimFCS software, were excluded from the analysis. […]

Row | SMILES | effect on the earlier virulence induction by antimycin A ([1]; co-treatment at 3 hours with 0.2% citrate and 10 μM antimycin A in 0.1% ethanol, surface-attached) | host-killing activity (host killing index) [1] | enzyme-bound NADH pool (P. aeruginosa) | fluorescence lifetime g-value (P. aeruginosa) | change in FLIM g-value (P. aeruginosa)
1 | O=C(O)CC(O)(CC(=O)O)C(=O)O [citrate] | inhibited | inhibited virulence; also recorded: abolished host-killing activity | decreased | increasing g-values | greatest increases
2 | OCC(O)CO [glycerol] |  | no effect on host-killing activity | relatively small impacts | increasing g-values | smallest changes
